# From patent publication US20140329854A1, “NOVEL HETEROCYCLIC COMPOUNDS USEFUL IN SIRTUIN BINDING AND MODULATION” (SMB Innovation, priority 2011, published 2014)
# Read-outs that look alike come from different tables or passages of the source.
# Legend:
# SIRT1 = molecular target: T1, SIRT1 (Homo sapiens, UniProt Q96EB6); assay: CISBIO HTRF SIRT1 assay of SIRT1 peptide deacetylation, modified by excluding NAD+; type: biochemical; details: for Modulation of SIRT1 deacetylating activity (in words): dose response, FIGS. 1-5
# T1 construct: purchased Cisbio Bioassays
# T1 sequence (Q96EB6 1-747): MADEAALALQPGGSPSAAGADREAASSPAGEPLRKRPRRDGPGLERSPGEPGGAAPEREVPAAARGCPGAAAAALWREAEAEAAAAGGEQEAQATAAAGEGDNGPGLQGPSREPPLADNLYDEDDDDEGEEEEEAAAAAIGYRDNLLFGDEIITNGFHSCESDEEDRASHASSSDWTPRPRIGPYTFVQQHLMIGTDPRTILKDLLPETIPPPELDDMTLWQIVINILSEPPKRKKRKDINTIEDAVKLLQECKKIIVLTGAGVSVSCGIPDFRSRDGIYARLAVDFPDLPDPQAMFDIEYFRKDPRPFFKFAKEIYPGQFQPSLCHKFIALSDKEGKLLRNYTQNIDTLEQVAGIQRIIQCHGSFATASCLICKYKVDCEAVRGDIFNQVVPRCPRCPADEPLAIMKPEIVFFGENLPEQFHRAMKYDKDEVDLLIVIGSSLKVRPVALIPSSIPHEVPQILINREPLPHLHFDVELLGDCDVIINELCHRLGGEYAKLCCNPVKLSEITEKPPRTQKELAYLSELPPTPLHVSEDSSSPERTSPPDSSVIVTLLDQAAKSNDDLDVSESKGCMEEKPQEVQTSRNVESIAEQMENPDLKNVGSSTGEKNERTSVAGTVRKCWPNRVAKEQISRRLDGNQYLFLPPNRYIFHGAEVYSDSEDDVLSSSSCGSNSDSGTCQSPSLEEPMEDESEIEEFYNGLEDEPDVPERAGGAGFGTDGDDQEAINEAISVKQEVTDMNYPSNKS
# Description: Generally, the CISBIO HTRF® fluorescence enzyme titration assay (Cisbio Bioassays, Cisbio, 135 South Road, Bedford, Mass. 01730, USA) has provided information on inhibition and/or activation of SIRT1 deacetylation of a substrate peptide d2 containing a single acetylated lysine residue and a fluorescence probe/quencher. IC50 and AC50 values have been obtained. The assay was performed in microtiter wells and involved an enzymatic step, wherein 2 μL of the substrate peptide (6 nM) is incubated with 2 μL of SIRT1 enzyme (2.5 ng) and 2 μL of compound solution in DMSO and water. Reaction with anti-acetyl cryptate produces a FRET signal giving maximum signal when no SIRT1 reaction can be detected. The detection step involves quantification of the deacetylation process using an anti-acetyl MAb labeled with Eu^3+ cryptate. The assay was modified by excluding the NAD+ cofactor and using nicotinamide as inhibition control and the compound SRT1720 as activation control. SRT 1720 is described as a SIRT1 activating compound in Pillarisetti, S. (2008).
# Protocol for inhibition/activation assay:
# After adding all enzymatic step ingredients the mixture is incubated at room temperature at 30 to 60 min. Then the detection reactant is added and incubated at room temperature for 5 hours and on to produce a signal. The fluorescence readout is given as percentage of signal produced with no enzyme reaction.
# The cryptate is excited at 337 nm and the fluorescence is measured at 590 nm (cryptate emission wavelength) and 665 nm (d2 emission wavelength). A ratio is calculated (665/590 nm) for each well.
# The figures show percentage fluorescence as a function of Log C (log of compound concentration in μM).
# [1] = Solubility in DMSO stock solution; details: solubility in DMSO before further dilution with water to 1% DMSO
# [2] = tested on: CYP1A2, CYP2C9, CYP2C19, CYP2D6, CYP3A4; assay: CYP inhibition in human liver microsomes
# human hepatocytes = assay: Metabolic stability in human hepatocytes; type: in vitro ADME
# Description: (§1) Stability of the six compounds in the presence of a drug metabolizing system such as human and rat hepatocytes was measured. Data were reported from the CRO in the format of hepatic intrinsic clearance (CLint) in mL/min/kg. These CLint data were converted using the well-stirred equation
# (§2) to a whole body clearance (CLh, hepatic clearance), which is more directly physiologically interpreted (Qh, hepatic blood flow rate, mL/min/kg).
# rat hepatocytes = assay: Metabolic stability in rat hepatocytes; type: in vitro ADME
# Description: as §1, §2
# [3] = tested on: CYP1A2, 2C9, 2C19, 2D6, and 3A4; details: microsomes
# [4] = SIRT1 activation, no NAD+ cofactor, average n = 3, read-out: AC50 in μM, average, n = 3
# [5] = SIRT1 activation, no NAD+ cofactor, single experiment of FIGS. 1-4, read-out: AC50 in μM, n = 1
# [6] = average AC50 values, n = 6, read-out: AC50
smiles,measurement,setting,value
"NC(=O)c1cccc(C(=O)Nc2ccc(O)cc2O)n1 [Compound 13, 2-N(2,4-dihydroxyphenyl)pyridine-2,6-dicarboxamide]",AC50,SIRT1; [4],647 µM
same,AC50,SIRT1; [5],105 µM
same,Modulation of SIRT1 deacetylating activity (in words),SIRT1,clear activation
same,Concentration of compound in DMSO stock solution,[1],20000 µM
"NC(=O)c1cc(C(=O)Nc2ccccc2O)c[nH]1 [Compound 17, 4-N(2-hydroxyphenyl)pyrrol-2,4-dicarboxamide]",IC50,"SIRT1; SIRT1 inhibition, no NAD+ cofactor, n = 1, FIG. 5",0.5 µM
same,Modulation of SIRT1 deacetylating activity (in words),SIRT1,clear inhibition
same,Concentration of compound in DMSO stock solution,[1],200000 µM
"NC(=O)c1ccc2cc(C(=O)Nc3ccc(O)cc3)ccc2n1 [Compound 14, 6-N(4-hydroxyphenyl)quinolin-2,6-dicarboxamide]",Concentration of compound in DMSO stock solution,[1],200000 µM
"NC(=O)c1ccc(C(=O)Nc2cccc3c(O)cccc23)cn1 [Compound 10, 5-N(5-hydroxy-1-naphthyl)pyridine-2,5-dicarboxamide]",Concentration of compound in DMSO stock solution,[1],20000 µM
"NC(=O)c1ccc(C(=O)Nc2cc(Cl)ccc2O)nc1 [Compound 23, 2-N(2-hydroxy-5-chloro-phenyl)pyridine-2,5-dicarboxamide]",AC50,SIRT1; [6],> 200 µM
"NC(=O)c1ccc(C(=O)Nc2cccc3cc(O)ccc23)nc1 [Compound 6, 2-N(6-hydroxy-1-naphthyl)pyridine-2,5-dicarboxamide]",Concentration of compound in DMSO stock solution,[1],100000 µM
"NC(=O)c1cc(C(=O)Nc2ccc(O)cc2)c[nH]1 [Compound 16, 4-N(4-hydroxyphenyl)pyrrol-2,4-dicarboxamide]",Concentration of compound in DMSO stock solution,[1],200000 µM
"NC(=O)c1ccc(C(=O)Nc2ccc3ccccc3c2O)nc1 [Compound 19, 2-N(1-hydroxy-2-naphthyl)pyridine-2,5-dicarboxamide]",AC50,SIRT1; [6],31.6 µM
same,IC50,[2],> 5 µM
"COc1cc2ccccc2c(NC(=O)c2ccc(C(N)=O)cn2)c1O [Compound 28, 2-N(2-hydroxy-3-methoxy-1-naphthyl)pyridine-2,5-dicarboxamide]",AC50,SIRT1; [6],175 µM
"CCOc1ccc2ccc(=O)oc2c1 [Compound 7EC, reference compound]",% Qh (human),"human hepatocytes; CLh as % of hepatic blood flow, human Qh = 21 mL/min/kg",82.5%
same,hu CLh,"human hepatocytes; hepatic clearance from CLint by well-stirred equation, human Qh = 21 mL/min/kg",17.3 mL/min/kg
same,hu CLint,"human hepatocytes; human hepatocytes, hepatic intrinsic clearance",99 mL/min/kg
same,% Qh (rat),"rat hepatocytes; CLh as % of hepatic blood flow, rat Qh = 55 mL/min/kg",66.0%
same,rat CLh,"rat hepatocytes; hepatic clearance from CLint by well-stirred equation, rat Qh = 55 mL/min/kg",36.3 mL/min/kg
same,rat CLint,"rat hepatocytes; rat hepatocytes, hepatic intrinsic clearance",107 mL/min/kg
"COc1cccc(NC(=O)c2ccc(C(N)=O)cn2)c1O [Compound 24, 2-N(2-hydroxy-3-methoxy-phenyl)pyridine-2,5-dicarboxamide]",IC50,[3],> 5 µM
"NC(=O)c1ccc2cc(C(=O)Nc3ccccc3O)ccc2n1 [Compound 15, 6-N(2-hydroxyphenyl)quinolin-2,6-dicarboxamide]",Concentration of compound in DMSO stock solution,[1],10000 µM
"NC(=O)c1ccc(C(=O)Nc2c(O)ccc3cc(Cl)ccc23)nc1 [Compound 29, 2-N(2-hydroxy-6-chloro-1-naphthyl)pyridine-2,5-dicarboxamide]",AC50,SIRT1; [6],113 µM
same,IC50,[2],> 5 µM
"NC(=O)c1ccc(C(=O)Nc2ccc(O)c3ccccc23)nc1 [Compound 4, 2-N(4-hydroxy-1-naphthyl)pyridine-2,5-dicarboxamide]",Concentration of compound in DMSO stock solution,[1],20000 µM
"NC(=O)c1ccc(C(=O)Nc2cc3ccccc3cc2O)nc1 [Compound 18, 2-N(3-hydroxy-2-naphthyl)pyridine-2,5-dicarboxamide]",AC50,SIRT1; [6],116 µM
"NC(=O)c1ccc(C(=O)Nc2cccc3c(O)cccc23)nc1 [Compound 5, 2-N(5-hydroxy-1-naphthyl)pyridine-2,5-dicarboxamide]",Concentration of compound in DMSO stock solution,[1],20000 µM
"NC(=O)c1ccc(C(=O)Nc2ccccc2O)nc1 [Compound 2, 2-N(2-hydroxyphenyl)pyridine-2,5-dicarboxamide]",AC50,SIRT1; [4],348 µM
same,AC50,SIRT1; [5],316 µM
same,Modulation of SIRT1 deacetylating activity (in words),SIRT1,clear activation
same,Concentration of compound in DMSO stock solution,[1],200000 µM
"NC(=O)c1ccc(C(=O)Nc2cccc3cc(O)ccc23)cn1 [Compound 12, 5-N(6-hydroxy-1-naphthyl)pyridine-2,5-dicarboxamide]",Concentration of compound in DMSO stock solution,[1],20000 µM
